Measured values from patent publication US9273115B2, “Method for controlling the biological activity of a protein in a vertebrate cell” (CENTRE NATIONAL DE LA RECHERCHE SCIENTIFIQUE (CNRS), priority 2009, dated 2016).
Changes are numbered by the printed parent chain.

Experiments:
[1] = target: T1, Cre-ERM^Db (Homo sapiens, UniProt P03372, A350M/G400V/G521S/L346I/M388Q/Y526D); experiment: X-Gal staining of skin sections of K14-Cre-ERM^Db/RosaR26R mice (Cre-mediated recombination in keratinocytes); settings: for Cre-mediated recombination in Cre-ERM^Db-expressing keratinocytes of ear skin (distal) / Cre-mediated recombination in Cre-ERM^Db-expressing keratinocytes of tail treated skin: daily tail topical treatment 1 or 0.2 mg for 5 days; for Cre-mediated recombination in keratinocytes expressing Cre-ERM^Db: ear treatment 1 mg/day for 5 days, ear sections at day 12
T1 sequence (P03372 311-547 L346I/A350M/M388Q/G400V/G521S/Y526D limits assumed): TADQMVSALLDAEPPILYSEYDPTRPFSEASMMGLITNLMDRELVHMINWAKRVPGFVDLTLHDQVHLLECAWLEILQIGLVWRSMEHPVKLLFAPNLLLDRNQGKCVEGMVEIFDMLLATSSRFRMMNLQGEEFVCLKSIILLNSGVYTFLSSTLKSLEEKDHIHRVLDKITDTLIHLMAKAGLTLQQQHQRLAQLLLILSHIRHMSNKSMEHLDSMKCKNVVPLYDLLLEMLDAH
Experimental: For topical application, DHB, DHBD, HMB or MB dissolved in ethanol at 100 mg/ml was diluted two times in acetone, and 20 μl (1 mg) was daily applied on one cm^2 ear or tail skin for 5 days. For intraperitoneal and gavage administration, compounds dissolved in ethanol were diluted at 10 mg/ml in sunflower oil, and 100 μl were i.p. injected or orally administered to mice.
β-Galactosidase histochemistry was performed on 10 μm-thick frozen section, stained with X-Gal (5-bromo-4-chloro-3-indolyl β-D-galactoside), as described (Brocard et al., 1997).

[2] = target: T1, Cre-ERM^Db
Experimental: (§1) F9^+/(LNL) cells (Clifford et al., 1996; Metzger et al., 1995) were coelectroporated with 5 μg pCre-ER expression vectors and 1 μg pPGK-hyg, that had been digested with AseI and PvuII, respectively. Hygromycin-resistant clones were obtained as described (Metzger et al., 1995). To analyse Cre-mediated DNA excision, such clones were plated in 24-well plates at a density of 6×10^3 cells, and grown in the presence of 100 nM all-trans retinoic acid (RA). […] PCR amplification of a segment of the RXRα WT allele (+) and recombined RXRα (Δ) allele from their genomic DNA was carried out using the primers 5′-[…]-3′ (SEQ ID No. 1) and 5′-[…]-3′ (SEQ ID No. 2) (+, ˜300 bp; Δ, ˜350 bp), as described (Feil et al., 1997).

[3] = target: T2, Cre-ERM^Da (Homo sapiens, UniProt P03372, A350M/G521S/L346I/M388Q/Y526D); experiment: Immunocytochemistry of pCre-ERM^Da-transfected Cos-1 cells (nuclear translocation); assay type: cell-based, African green monkey; set-up: a fusion protein between Cre and the L346I, A350M, M388Q, G521S, Y526D mutant ERα LBD; Cre recombinase (bacteriophage P1); expressed in transfected cells; host or cells: Cos-1 cells (transient, pCre-ERM^Da) for A1; settings: 3 μM DHB for 24 hrs
T2 sequence (P03372 311-547 L346I/A350M/M388Q/G521S/Y526D limits assumed): T1 sequence (P03372 311-547 L346I/A350M/M388Q/G400V/G521S/Y526D limits assumed) with V90G
Experimental: (§2) Cos-1 cells grown on Lab-TekII chamber slides (Nalge Nunc International) were transfected with 0.25 μg pCre-ERM expression vectors with Fugene, according to the manufacturer's instruction and treated with vehicle (ethanol) or 3 μM DHB for 24 hrs.

[4] = Plasma levels after i.p. administration; assay type: in vivo, mice
Experimental: For intraperitoneal and gavage administration, compounds dissolved in ethanol were diluted at 10 mg/ml in sunflower oil, and 100 μl were i.p. injected or orally administered to mice.

[5] = target: T3, Cre-ERM^Dc (Homo sapiens, UniProt P03372, A350M/G442Y/G521S/L346I/L466S/M388Q/Y459N/Y526D); experiment: PCR detection of Cre-mediated floxed DNA excision in Cre-ERM^Dc/RXRα^+/(LNL) F9 cells; assay type: cell-based; set-up: Cre recombinase (bacteriophage P1); expressed in transfected cells; settings: F9 clone; one of 9 active clones
T3 sequence (P03372 311-547 L346I/A350M/M388Q/G442Y/Y459N/L466S/G521S/Y526D limits assumed): T1 sequence (P03372 311-547 L346I/A350M/M388Q/G400V/G521S/Y526D limits assumed) with V90G, G132Y, Y149N, L156S
Experimental: as §1

[6] = target: T2, Cre-ERM^Da; experiment: PCR detection of Cre-mediated floxed DNA excision in Cre-ERM^Da/RXRα^+/(LNL) F9 cells; assay type: cell-based, mouse; set-up: a fusion protein between Cre and the L346I, A350M, M388Q, G521S, Y526D mutant ERα LBD; Cre recombinase (bacteriophage P1); expressed in transfected cells; settings: 3 μM DHB, 3 days
Experimental: as §1

[7] = Blood hematology and plasma biochemical profile at D19; assay type: in vivo, mice; set-up: Bilirubin / Uric acid / Iron: unit not given here; settings: for ALAT / ALP / ASAT / Albumin / Bilirubin / Cholesterol / Glucose / HCT, hematocrit / HGB, hemoglobin / Iron / K / MCH, mean corpuscular hemoglobin / MCHC, mean corpuscular hemoglobin concentration / MCV, mean corpuscular volume / Magnesium / Na / Phosphorus / Total protein / Triglycerides / Uric acid: 1 mg daily ip D1 to D5, means +/− SD, n = 3
[8] = target: T3, Cre-ERM^Dc; experiment: Immunocytochemistry of Cre-ERM^Dc (translocation from cytoplasm to nucleus); assay type: cell-based; set-up: Cre recombinase (bacteriophage P1); expressed in transfected cells; host or cells: Cos-1 cells (transient, pCre-ERM^Dc) for A3; settings: data not shown
Experimental: as §2

[9] = target: T1, Cre-ERM^Db; experiment: Immunocytochemistry of pCre-ERM^Db-transfected Cos-1 cells (nuclear translocation); assay type: cell-based, monkey; set-up: Cre recombinase (bacteriophage P1); expressed in transfected cells; host or cells: Cos-1 cells (transient, pCre-ERM^Db) for A2; settings: 3 μM DHB for 24 hrs
Experimental: as §2

[10] = Liver histology of treated mice; assay type: in vivo; settings: DHB-treated mice

Molecule: CC(C)(C)C(=O)Oc1ccc(C(=O)C(=O)c2ccc(OC(=O)C(C)(C)C)cc2)cc1 [DHBD, 4,4′-dihydroxylbenzyl dipivalate]
- Cre-mediated recombination in Cre-ERM^Db-expressing keratinocytes of ear skin (distal) [1]: induced efficient Cre-mediated recombination
- Cre-mediated recombination in Cre-ERM^Db-expressing keratinocytes of tail treated skin [1]: induced efficient Cre-mediated recombination

Molecule: COc1ccc(C(=O)C(=O)c2ccc(O)cc2)cc1 [HMB, 4-hydroxy-4′-methoxybenzyl]
- Cre-mediated recombination in keratinocytes expressing Cre-ERM^Db [1]: Induction of Cre-ERM^Db recombinase activity

Molecule: 4-hydroxytamoxifen [OHT]
- Cre-ERM^Db recombinase activity [2]: neither E2 nor OHT induced any recombinase activity

Molecule: O=C(C(=O)c1ccc(O)cc1)c1ccc(O)cc1 [DHB, 4,4′-dihydroxybenzil]
- Cre-ERM^Da protein nuclear translocation [3]: induced Cre-ERM^Da protein nuclear translocation
- in vivo clearance ([4]; 1 mg i.p.): high
- plasma levels ([4]; 1 mg i.p., 22 hours after the two-hour sample): undetectable
- concentration at 2 h ([4]; mouse, plasma, ip, two hours after 1 mg i.p.): 550 ng/mL
- β-galactosidase expression in epidermal keratinocytes ([1]; 1 mg topically to one ear D1 to D5, treated ear sampled at D12): most, if not all epidermal keratinocytes from the treated ear expressed β-galactosidase
- Cre-mediated recombination in Cre-ERM^Db-expressing keratinocytes of ear skin (distal) [1]: induced efficient Cre-mediated recombination
- Cre-mediated recombination in Cre-ERM^Db-expressing keratinocytes of tail treated skin [1]: induced efficient Cre-mediated recombination
- Cre-mediated recombination in keratinocytes expressing Cre-ERM^Db [1]: efficiently induced
- β-galactosidase expression in epidermal keratinocytes ([1]; gavage 2 mg/day for 5 days): induced
- β-galactosidase expression in epidermal keratinocytes ([1]; intraperitoneal injection 1 mg/day for 5 days): induced
- Cre-ERM^Dc Cre-mediated recombinase activity [5]: strictly DHB-dependent
- Cre-ERM^Da recombinase activity [6]: induced Cre-ERM^Da recombinase activity
- Cre-mediated floxed DNA excision (Cre-ERM^Db recombinase activity) ([2]; F9 clone, ligand 3 μM): efficiently induced Cre-mediated floxed DNA excision
- blood hematology and plasma biochemical profiles versus vehicle ([7]; 1 mg daily ip D1 to D5): did not reveal major difference
- ALAT ([7]; female mice): 27.7 +/− 2.9 U/l
- ALP ([7]; female mice): 137.0 +/− 14.1 U/l
- ASAT ([7]; female mice): 143.3 +/− 91.3 U/l
- Albumin ([7]; female mice): 28.7 ± 0.6 g/L
- Bilirubin ([7]; female mice): 1.3 +/− 0.4
- Cholesterol ([7]; female mice): 1.8 ± 0.1 mmol/L
- Glucose ([7]; female mice): 18.7 ± 3.5 mmol/L
- HCT, hematocrit ([7]; female mice): 38.9 +/− 2.3%
- HGB, hemoglobin ([7]; female mice): 13.3 ± 0.8 g/dL
- Iron ([7]; female mice): 25.6 +/− 3.9
- K ([7]; female mice): 5.8 ± 0.5 mmol/L
- MCH, mean corpuscular hemoglobin ([7]; female mice): 16.1 ± 0.2 pg
- MCHC, mean corpuscular hemoglobin concentration ([7]; female mice): 34.2 ± 0.2 g/dL
- MCV, mean corpuscular volume ([7]; female mice): 47.2 ± 0.9 fL
- Magnesium ([7]; female mice): 1.5 ± 0.1 mmol/L
- Na ([7]; female mice): 152 ± 1.0 mmol/L
- Phosphorus ([7]; female mice): 3.2 ± 0.1 mmol/L
- Total protein ([7]; female mice): 48 ± 2.6 g/L
- Triglycerides ([7]; female mice): 0.6 ± 0.1 mmol/L
- Uric acid ([7]; female mice): 193.0 +/− 58.4
- ALAT ([7]; male mice): 34.7 +/− 17.5 U/l
- ALP ([7]; male mice): 114.3 +/− 8.1 U/l
- ASAT ([7]; male mice): 194 +/− 45.5 U/l
- Albumin ([7]; male mice): 27.3 ± 3.5 g/L
- Bilirubin ([7]; male mice): 2.0 +/− 0.3
- Cholesterol ([7]; male mice): 2.2 ± 0.2 mmol/L
- Glucose ([7]; male mice): 21.4 ± 7.2 mmol/L
- HCT, hematocrit ([7]; male mice): 40.0 +/− 3.7%
- HGB, hemoglobin ([7]; male mice): 14.0 ± 1.3 g/dL
- Iron ([7]; male mice): 24.9 +/− 1.4
- K ([7]; male mice): 5.9 mmol/L
- MCH, mean corpuscular hemoglobin ([7]; male mice): 16.0 ± 0.2 pg
- MCHC, mean corpuscular hemoglobin concentration ([7]; male mice): 34.9 ± 0.1 g/dL
- MCV, mean corpuscular volume ([7]; male mice): 45.8 ± 0.5 fL
- Magnesium ([7]; male mice): 1.2 ± 0.2 mmol/L
- Na ([7]; male mice): 149.7 ± 6.1 mmol/L
- Phosphorus ([7]; male mice): 3.6 ± 0.6 mmol/L
- Total protein ([7]; male mice): 48.3 ± 7.1 g/L
- Triglycerides ([7]; male mice): 0.8 ± 0.2 mmol/L
- Uric acid ([7]; male mice): 235.7 +/− 132.5
- translocation of Cre-ERM^Dc from the cytoplasm to the nucleus [8]: induced translocation
- Cre-ERM^Db nuclear translocation [9]: induced its nuclear translocation
- histological defects in liver [10]: no histological defects

Molecule: 4,4′-methoxybenzyl [MB]
- Cre-mediated recombination in keratinocytes expressing Cre-ERM^Db [1]: efficiently induced
